Reference: patent US6369297B1, “Inducible one-component plant gene tagging” (Academia Sinica, priority 2000, dated 2002)

Assays:
[1] = tested on: INAc transposition; assay: 5-azacytidine as second inducer of transposition in tobacco seedlings harboring INAc; type: in vivo; conditions: 0.1 mM 5-azacytidine combined with 1 mM SA
From the text: Other inducers. Given that 5-azacytidine was recently shown to enhance Ac excision in transformed plants (Scortecci et al., Plant Cell Physiol. 38:336-343, 1997), the use of this agent was examined as a second inducer to trigger transposition events in tobacco seedlings harboring INAc.

[2] = tested on: transformed tobacco plants; assay: Germination frequency of R1 progeny and fruiting of SA-treated transformed tobacco plants; type: in vivo
Procedure: (§1) An important feature of an inducible transposable element is its susceptibility to induced transposition in germinal tissue. Such susceptibility markedly increases the probability of success of transposon tagging in the isolation of important plant genes. To determine the effectiveness of INAc for gene tagging, the induction of transposition in germ-line tissue was studied using 14 transformed tobacco plants from lines IA, IM, IN, and IP. […] The R1 progeny was analyzed by comparing the germination frequency apparent on normal germination medium with that observed on germination medium containing hygromycin B, as summarized in Table 3.
Capsules are designated A through E.

[3] = tested on: INAc transposition (PR-1a::TPase); assay: SA induction of INAc transposition in flowering tissue; LUC assay of HygR R1 progeny; type: in vivo, tobacco
Procedure: (§2) Assay of reporter gene activities. Luciferase activity was determined as described in Howell et al., “Use of the firefly luciferase gene as a reporter of gene expression in plants,” In: Gelvin et al., eds, Plant Molecular Biology Manual, pp. B8/1-B8/11, Kluwer Academic Publishers, Dordrecht, 1989; using a Lumat LB 9501 luminometer (Berthold, Munich, Germany). For imaging of luciferase activity, hygromycin-resistant (Hyg^R) seedlings were sprayed with luciferin, incubated in the dark for 5 minutes, and then placed under a charge-coupled device camera (ChemiImager 4000; Alpha Innotech, San Leandro, Calif.) for detection of luminescence. Image acquisition and processing were performed with AlphaEase software (Alpha Innotech). Exposure time was 30 minutes.
as §1, with “Analysis of SA-induced transposition in R1 progeny of transformed tobacco plants. An” for “An”, “The flowering tissues of plants were sprayed with SA at concentrations of 50, 5, or 1 mM, and after 2 hours these tissues were watered to remove SA. […] The” for “The”
The proportion of LUC^+ seedlings after selection with hygromycin B was next determined. […] A large proportion of LUC^+ seedlings was apparent for transformed plants treated with SA (Table 3).
With this approach, the efficiency of INAc transposition was determined to be 0.2, 0.7, and 3.1% for transformed plants treated with 1, 5, and 50 mM SA, respectively, as shown in Table 4.

[4] = tested on: INAc transposition (PR-1a::TPase); assay: SA induction of INAc transposition in transgenic tobacco calli (luciferase activity of regenerated shoots); type: cell-based; conditions: for shoots exhibiting high luciferase activity: line IK; for shoots with luciferase activity (transposition frequency): lines IA, IC, IM1, IN1, IP1, IR1; for shoots exhibiting luciferase activity out of shoots from SA-treated calli: 0.1 and 1 mM SA pooled
Procedure: as §2
Induction of INAc transposition. […] The effect of SA on INAc transposition was determined by incubating Hyg^R calli with a diameter of 0.5 to 1 cm for various times on callus regeneration medium containing either 0.1 or 1 mM SA. The calli for the transformed lines IA, IC, and IK were directly divided from the primary regenerated calli, which were large and generated many primary transformed shoots. For transformed lines IF, IM, IN, IP, and IR, the calli were obtained from the primary transformants IF1, IM1, IN1, IP1, and IR1. Leaf disks were excised and incubated on callus regeneration medium to yield enough calli for induction experiments. The calli were treated with 0.1 mM SA for 60 days, or were incubated with 1 mM SA for 10 days and then transferred to normal callus regeneration medium for an additional 50 days. As a control, calli were incubated on normal callus regeneration medium for 60 days. Luciferase activity was measured in the shoots that developed from the calli during incubation and was expressed as −, +, ++, or +++ as described in Table 2.
The numerical values in Table 2 indicate the number of LUC^+ shoots that were regenerated from SA-treated tobacco calli. Symbols denoting the amount of luciferase activity (RLU per microgram of total protein) are as follows: (−) <50 (with no typical luciferase activity kinetics); (+) 50 to 500 RLU; (++) 500 to 5000 RLU; and (+++)>5000 RLU.

## Nc1ncn([C@@H]2O[C@H](CO)[C@@H](O)[C@H]2O)c(=O)n1 [5-azacytidine]
[1]
  transposition efficiency versus treatment with SA alone: higher

## O=C(O)c1ccccc1O [SA, salicylic acid]
[2]; 50 mM SA sprayed on flowering tissues, watered off after 2 hours
  frequency of fruiting: marked decrease
[2]; 50 mM SA, plants IA5 and IP6
  germination frequency of R1 progeny: low germination frequencies
[3]; 1 mM SA, mean of tobacco lines IA, IM, IN, IP
  S: Percentage of Hyg R progeny that were LUC+: 29%
[3]; 1 mM SA, of 1021 seedlings
  number of seedlings showing high luciferase activity: 2 seedlings
[3]; 1 mM SA, tobacco line IA
  S: Percentage of Hyg R progeny that were LUC+: 33%
[3]; 1 mM SA, tobacco line IA (plant IA7)
  G: Percentage of Hyg R progeny that exhibited high luciferase activity: 0.4%
[3]; 1 mM SA, tobacco line IM
  S: Percentage of Hyg R progeny that were LUC+: 11%
[3]; 1 mM SA, tobacco line IM (plant IM4)
  G: Percentage of Hyg R progeny that exhibited high luciferase activity: 0.4%
[3]; 1 mM SA, tobacco line IN
  G: Percentage of Hyg R progeny that exhibited high luciferase activity: 0%
  S: Percentage of Hyg R progeny that were LUC+: 9%
[3]; 1 mM SA, tobacco line IP
  G: Percentage of Hyg R progeny that exhibited high luciferase activity: 0%
  S: Percentage of Hyg R progeny that were LUC+: 62%
[3]; 5 mM SA, capsule B of plant IP9
  HygR seedlings exhibiting high luciferase activity out of seedlings screened: 12 out of 202
[3]; 5 mM SA, mean of tobacco lines IA, IM, IN, IP
  S: Percentage of Hyg R progeny that were LUC+: 47%
[3]; 5 mM SA, of 1000 seedlings
  number of seedlings showing high luciferase activity: 7 seedlings
[3]; 5 mM SA, tobacco line IA
  S: Percentage of Hyg R progeny that were LUC+: 60%
[3]; 5 mM SA, tobacco line IA (plant IA6)
  G: Percentage of Hyg R progeny that exhibited high luciferase activity: 0.4%
[3]; 5 mM SA, tobacco line IM
  S: Percentage of Hyg R progeny that were LUC+: 45%
[3]; 5 mM SA, tobacco line IM (plant IM5)
  G: Percentage of Hyg R progeny that exhibited high luciferase activity: 0.8%
[3]; 5 mM SA, tobacco line IN
  G: Percentage of Hyg R progeny that exhibited high luciferase activity: 0%
  S: Percentage of Hyg R progeny that were LUC+: 15%
[3]; 5 mM SA, tobacco line IP
  S: Percentage of Hyg R progeny that were LUC+: 68%
[3]; 5 mM SA, tobacco line IP (plant IP9)
  G: Percentage of Hyg R progeny that exhibited high luciferase activity: 1.6%
[3]; 50 mM SA, mean of tobacco lines IA, IP
  S: Percentage of Hyg R progeny that were LUC+: 75%
[3]; 50 mM SA, of 32 seedlings
  number of seedlings showing high luciferase activity: 1 seedling
[3]; 50 mM SA, tobacco line IA
  S: Percentage of Hyg R progeny that were LUC+: 70%
[3]; 50 mM SA, tobacco line IA (plant IA5)
  G: Percentage of Hyg R progeny that exhibited high luciferase activity: 3.7%
[3]; 50 mM SA, tobacco line IP
  G: Percentage of Hyg R progeny that exhibited high luciferase activity: 0%
  S: Percentage of Hyg R progeny that were LUC+: 100%
[3]; 1, 5, 50 mM SA
  effect of SA concentration on frequency of LUC+ seedlings / transposition events in floral tissues: dose-dependent manner
[3]; plant 1M5, flowers sprayed 5 mM SA, R1 progeny, capsules A-E in successive rows
  LUC assay: LUC+ seedlings (activity class)/HygR seedlings assayed: 30+152
[3]; plants exposed to SA (1, 5 or 50 mM) pooled, 785 out of 2053 seedlings
  seedlings exhibiting luciferase activity: 38%
[3]; plants exposed to SA (1, 5 or 50 mM) pooled, of 2053 seedlings
  number of seedlings showing high luciferase activity: 10 seedlings
[4]; 0.1 mM SA, IA and IP1 calli, two out of nine shoots
  shoots exhibiting medium (++) luciferase activity: 22%
[4]; 0.1 mM SA, 1 out of 9 shoots
  shoots exhibiting high luciferase activity: 11%
[4]; 0.1 mM SA, 33 out of 45 shoots
  shoots with luciferase activity (transposition frequency): 73%
[4]; 0.1 mM SA, tobacco calli
  induction of PR-1a::TPase expression and transposition events: sufficient to induce the expression of PR-1a::TPase
[4]; 1 mM SA, IA and IP1 calli, 13 out of 25 shoots
  shoots exhibiting medium (++) or high (+++) luciferase activity: 52%
[4]; 1 mM SA, 4 out of 16 shoots
  shoots exhibiting high luciferase activity: 25%
[4]; 1 mM SA, 27 out of 70 shoots
  shoots with luciferase activity (transposition frequency): 39%
[4]; tobacco callus IC, presence of SA
  luciferase activity in shoots regenerated from callus: not detected
[4]; tobacco line IK
  luciferase activities of induced shoots versus uninduced shoots: slightly higher
[4]; tobacco line IM1
  shoots exhibiting luciferase activity out of shoots from SA-treated calli: 11 out of 24
[4]; tobacco line IN1
  shoots exhibiting luciferase activity out of shoots from SA-treated calli: 11 out of 20
[4]; tobacco line IP
  shoots exhibiting luciferase activity out of shoots from SA-treated calli: 15 out of 17
[4]; tobacco line IR1
  shoots exhibiting luciferase activity out of shoots from SA-treated calli: 12 out of 20
